Laboratory results from PubChem BioAssay (NCI).
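Grown in 96-well plates, cells were treated for 48 hours with each compound at five concentrations. Insufficient inhibition: endpoint recorded as highest concentration tested. Abbreviation: GI50, concentration required for 50% inhibition of growth. The concentration for full growth arrest is given as TGI.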

Columns and labels:
Experiment in all cases: DTP human tumour cell line panel, 48 h
[1] = tested on: U251 CNS
[2] = tested on: NCI/ADR-RES ovarian
[3] = tested on: TK-10 renal
[4] = tested on: HCT-15 colon
[5] = tested on: UO-31 renal
[6] = tested on: HCC-2998 colon
[7] = tested on: NCI-H23 lung
[8] = tested on: SNB-19 CNS
[9] = tested on: SF-268 CNS
[10] = tested on: BT-549 breast
[11] = tested on: CCRF-CEM leukemia
[12] = tested on: RXF 393 renal
[13] = tested on: KM12 colon
[14] = tested on: RPMI-8226 leukemia
[15] = tested on: NCI-H460 lung
[16] = tested on: HCT-116 colon
[17] = tested on: HT29 colon
[18] = tested on: NCI-H522 lung
[19] = tested on: HOP-62 NSCLC
[20] = tested on: LOX IMVI melanoma
[21] = tested on: UACC-62 melanoma
[22] = tested on: MDA-MB-435
[23] = tested on: SF-295 CNS
[24] = tested on: HL-60(TB) leukemia
[25] = tested on: SW-620 colon
[26] = tested on: OVCAR-3 ovarian

**Q.** How did the GI50 [1] turn out when Cc1cc(N2CCN(c3ccnc4cc(Cl)ccc34)CC2)nc(NC2CCCCC2)n1 was run?
**A.** Its GI50 is 1720 nM.

**Q.** What about the TGI [1] of the same compound?
**A.** Its TGI is 3.37 µM.

**Q.** And the GI50 [2]?
**A.** The GI50 was 1910 nM.

**Q.** And the TGI [2]?
**A.** The TGI was 3.97 µM.

**Q.** And the GI50 [3]?
**A.** The GI50 was 1870 nM.

**Q.** And the TGI [3]?
**A.** The TGI was 3.54 µM.

**Q.** What about the GI50 [4] of the same compound?
**A.** Its GI50 is 1550 nM.

**Q.** What about the TGI [4] of the same compound?
**A.** The TGI was 3.44 µM.

**Q.** What about the GI50 [5] of the same compound?
**A.** The GI50 was 1400 nM.

**Q.** What about the TGI [5] of the same compound?
**A.** Its TGI is 3.13 µM.

**Q.** What about the GI50 [6] of the same compound?
**A.** The GI50 was 2000 nM.

**Q.** And the TGI [6]?
**A.** Its TGI is 3.84 µM.

**Q.** And the GI50 [7]?
**A.** Its GI50 is 3.04 µM.

**Q.** What about the TGI [7] of the same compound?
**A.** Its TGI is 8.37 µM.

**Q.** And the GI50 [8]?
**A.** Its GI50 is 2980 nM.

**Q.** And the TGI [8]?
**A.** The TGI was 11 µM.

**Q.** And the GI50 [9]?
**A.** The GI50 was 2340 nM.

**Q.** And the TGI [9]?
**A.** Its TGI is 5.41 µM.

**Q.** What about the GI50 [10] of the same compound?
**A.** The GI50 was 1660 nM.

**Q.** What about the TGI [10] of the same compound?
**A.** The TGI was 3.28 µM.

**Q.** And the GI50 [11]?
**A.** The GI50 was 2710 nM.

**Q.** And the TGI [11]?
**A.** Its TGI is 10.1 µM.

**Q.** And the GI50 [12]?
**A.** The GI50 was 1710 nM.

**Q.** And the TGI [12]?
**A.** Its TGI is 3.79 µM.

**Q.** And the GI50 [13]?
**A.** Its GI50 is 2560 nM.

**Q.** And the TGI [13]?
**A.** Its TGI is 6.27 µM.

**Q.** And the GI50 [14]?
**A.** Its GI50 is 1850 nM.

**Q.** And the TGI [14]?
**A.** Its TGI is 4.8 µM.

**Q.** And the GI50 [15]?
**A.** Its GI50 is 1880 nM.

**Q.** What about the TGI [15] of the same compound?
**A.** Its TGI is 3.71 µM.

**Q.** And the GI50 [16]?
**A.** Its GI50 is 1320 nM.

**Q.** And the TGI [16]?
**A.** The TGI was 2910 nM.

**Q.** And the GI50 [17]?
**A.** The GI50 was 1790 nM.

**Q.** And the TGI [17]?
**A.** The TGI was 3.9 µM.

**Q.** What about the GI50 [18] of the same compound?
**A.** The GI50 was 1930 nM.

**Q.** What about the TGI [18] of the same compound?
**A.** Its TGI is 3.8 µM.

**Q.** What about the GI50 [19] of the same compound?
**A.** The GI50 was 2020 nM.

**Q.** What about the TGI [19] of the same compound?
**A.** Its TGI is 4.61 µM.

**Q.** And the GI50 [20]?
**A.** The GI50 was 1730 nM.

**Q.** And the TGI [20]?
**A.** The TGI was 3.19 µM.

**Q.** What about the GI50 [21] of the same compound?
**A.** The GI50 was 1660 nM.

**Q.** And the TGI [21]?
**A.** Its TGI is 3.34 µM.

**Q.** What about the GI50 [22] of the same compound?
**A.** Its GI50 is 1490 nM.

**Q.** What about the TGI [22] of the same compound?
**A.** The TGI was 2960 nM.

**Q.** And the GI50 [23]?
**A.** The GI50 was 1720 nM.

**Q.** And the TGI [23]?
**A.** Its TGI is 3.49 µM.

**Q.** What about the GI50 [24] of the same compound?
**A.** The GI50 was 2250 nM.

**Q.** And the TGI [24]?
**A.** Its TGI is 5.32 µM.

**Q.** What about the GI50 [25] of the same compound?
**A.** Its GI50 is 1870 nM.

**Q.** What about the TGI [25] of the same compound?
**A.** Its TGI is 4.35 µM.

**Q.** What about the GI50 [26] of the same compound?
**A.** The GI50 was 1900 nM.

**Q.** What about the TGI [26] of the same compound?
**A.** Its TGI is 3.9 µM.
